Data reported in patent US5169857A, “7-(polysubstituted pyridyl)-hept-6-endates useful for treating hyperproteinaemia, lipoproteinaemia or arteriosclerosis” (Bayer Aktiengesellschaft, priority 1988, dated 1992).

system: serum cholesterol; assay: subchronic action on the blood cholesterol values of dogs in feeding experiments; format: in vivo; conditions: 8 mg/kg p.o. daily for 2 weeks; beagle dogs; colestyramine 4 g/100 g of feed throughout; vs values before administration
Procedure: The subchronic action of the compounds according to the invention on the blood cholesterol values of dogs was tested in feeding experiments of several weeks duration. For this, the substance to be investigated was given p.o. once daily in a capsule to healthy beagle dogs together with the feed over a period of time lasting several weeks. Colestyramine (4 g/100 g of feed) as the […] sequestrant was additionally admixed in the feed during the entire experimental period, i.e. before, during and after the administration period of the substances to be investigated. Venous blood was taken from the dogs twice weekly and the serum cholesterol was determined enzymatically using a commercial test kit. The serum cholesterol values during the administration period were compared with the serum cholesterol values before the administration period (controls).

SMILES	lowering of the serum cholesterol
COC(=O)C[C@H](O)C[C@H](O)/C=C/c1c(C(C)C)nc(C(C)C)c(COCc2ccccc2)c1-c1ccc(F)cc1 (relative stereo) [Example 17, Methyl erythro-(E)-7-[3-benzyloxymethyl-2,6-diisopropyl-4-(4-fluorophenyl)-pyrid-5-yl]-3,5-dihydroxy-hept-6-enoate]	about 66%

target: T1, HMG-CoA reductase (3-hydroxy-3-methyl-glutaryl coenzyme A reductase) (Rattus norvegicus, UniProt P51639); assay: determination of HMG-CoA reductase enzyme activity (rat liver enzyme preparation); relative inhibitory potency vs mevinolin; conditions: relative inhibitory potency from IC50 values; IC50 of reference mevinolin set at 1; 20 min preincubation, 60 min at 37° C.
T1 sequence (P51639 1-887): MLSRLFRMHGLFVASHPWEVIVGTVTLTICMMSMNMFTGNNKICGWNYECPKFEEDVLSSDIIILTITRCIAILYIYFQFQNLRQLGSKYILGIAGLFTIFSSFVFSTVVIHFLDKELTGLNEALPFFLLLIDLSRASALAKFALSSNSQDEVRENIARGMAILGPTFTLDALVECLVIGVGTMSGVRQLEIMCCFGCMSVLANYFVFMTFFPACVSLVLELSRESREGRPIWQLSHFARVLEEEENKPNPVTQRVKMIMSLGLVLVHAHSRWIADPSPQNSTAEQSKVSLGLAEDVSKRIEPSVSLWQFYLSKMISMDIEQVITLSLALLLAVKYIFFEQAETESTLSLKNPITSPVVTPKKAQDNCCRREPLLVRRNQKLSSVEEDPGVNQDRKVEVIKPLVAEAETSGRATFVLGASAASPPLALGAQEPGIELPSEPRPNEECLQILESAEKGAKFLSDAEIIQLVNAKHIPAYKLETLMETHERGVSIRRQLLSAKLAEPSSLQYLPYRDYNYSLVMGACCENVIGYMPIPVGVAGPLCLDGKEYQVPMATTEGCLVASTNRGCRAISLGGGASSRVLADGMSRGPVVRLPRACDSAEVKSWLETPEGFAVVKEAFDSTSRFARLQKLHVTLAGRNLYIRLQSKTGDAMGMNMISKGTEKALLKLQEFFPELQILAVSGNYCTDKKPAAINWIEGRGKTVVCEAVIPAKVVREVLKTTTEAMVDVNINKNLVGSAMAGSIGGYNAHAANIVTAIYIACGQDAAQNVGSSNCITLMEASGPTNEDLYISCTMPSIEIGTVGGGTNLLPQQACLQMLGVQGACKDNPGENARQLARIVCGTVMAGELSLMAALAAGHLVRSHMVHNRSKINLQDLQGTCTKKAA
Procedure: Male Rico rats (body weight 300-400 g) were treated for 11 days with Altromin powdered feed, to which 40 g of colestyramine/kg of feed was added. After decapitation, the liver was removed from the animals and placed on ice. The livers were comminuted and homogenized 3 times in a Potter-Elvejem homogenizer in 3 volumes of 0.1 M saccharose, 0.05 M KCl, 0.04 M Kx Hy phosphate, 0.03 M ethylenediaminetetraacetic acid, 0.002 M dithiothreitol (SPE) buffer pH 7.2. The mixture was subsequently centrifuged for 15 minutes at 15,000* g and the sediment rejected. The supernatant was sedimented for 75 minutes at 100,000 g. The pellet is taken up in 1/4 volume of SPE buffer, homogenized once again and subsequently centrifuged again for 60 minutes at 100,000 g. The pellet is taken up using the 5-fold amount of its volume of SPE buffer, homogenized and frozen and stored at -78° C. (=enzyme solution).
For testing, the test compounds (or mevinolin as a reference substance) were dissolved in dimethylformamide with the addition of 5% by volume of 1 N NaOH and employed in the enzyme test in various concentrations using 10 μl. The test was started after preincubation of the compound with the enzyme at 37° C. for 20 minutes. The test batch was 0.380 ml and contained 4 μmol of glucose-6-phosphate, 1.1 mg of bovine serum albumin, 2.1 μmol of dithiothreitol, 0.35 μmol of NADP, 1 unit of glucose-6-phosphate dehyrogenase 35 μmol of KxHy phosphate PH 7.2, 20 μl of enzyme preparation and 56 nmol of 3x hydroxy-3-methyl-glutarylconenzyme A (glutaryl-3-^14 C) 100,000 dpm.
After incubation for 60 minutes at 37° C., the batch was centrifuged and 600 μl of the supernatant was applied to a 0.7×4 cm column filled with a 5-chloride 100-200 mesh (anion exchanger). It was washed with 2 ml of distilled water and 3 ml of aquasol were added to the runnings plus washing water and counted in the LKB scintillation counter. IC50 values were determined by intrapolation by plotting the percentage inhibition against the concentration of the compound in the test. To determine the relative inhibitory potency, the IC50 value of the reference substance mevinolin was set at 1 and compared with the simultaneously determined IC50 value of the test compound.

SMILES	Rel. Activity (Mevinolin = 1)
COC(=O)C[C@H](O)C[C@H](O)/C=C/c1c(C(C)C)nc(C(C)C)c(COC(C)=O)c1-c1ccc(F)cc1 (relative stereo) [Example 72, methyl erythro-(E)-7-[3-acetoxymethyl-2,6-diisopropyl-4-(4-fluorophenyl)-pyrid-5-yl]-3,5-dihydroxy-hept-6-enoate]	17
COCc1c(C2CC2)nc(C(C)C)c(/C=C/[C@@H](O)C[C@@H](O)CC(=O)OC)c1-c1ccc(F)cc1 (relative stereo) [Example 85, Methyl erythro-(E)-7-[6-cyclopropyl-2-isopropyl-4-(4-fluorophenyl)-5-methoxymethyl-pyrid-3-yl]-3,5-dihydroxy-hept-6-enoate]	20
CCOC(=O)c1c(C(C)C)nc(C(C)C)c(/C=C/[C@@H](O)C[C@@H](O)CC(=O)OC)c1-c1ccc(F)cc1 (relative stereo) [Example 100, Methyl erythro-(E)-7-[2,6-diisopropyl-4-(4-fluorophenyl)-5-carboxyethyl-pyrid-3-y]-3,5-dihydroxy-hept-6-enoate]	30
COC(=O)C[C@H](O)C[C@H](O)/C=C/c1c(C(C)C)nc(C(C)C)c(CN2CCOCC2)c1-c1ccc(F)cc1 (relative stereo) [Example 105, Methyl erythro-(E)-7-[2,6-diisopropyl-4-(4-fluorophenyl)-5-morpholinomethyl-pyrid-3-yl]-3,5-dihydroxy-hept-6-enoate]	4
COC(=O)C[C@H](O)C[C@H](O)/C=C/c1c(-c2ccc(F)cc2)nc(C)c(C#N)c1C(C)C (relative stereo) [Example 139, Methyl erythro-(E)-7-[5-cyano-2-(4-fluorophenyl)-4-isopropyl-6-methyl-pyrid-3-yl]-3,5-dihydroxy-hept-6-enoate]	20

Continued, values first:

Rel. Activity (Mevinolin = 1)	SMILES
20	COC(=O)C[C@H](O)C[C@H](O)/C=C/c1c(C(C)C)nc(C(C)C)c(COCc2ccccc2)c1-c1ccc(F)cc1 (relative stereo) [Example 17, Methyl erythro-(E)-7-[3-benzyloxymethyl-2,6-diisopropyl-4-(4-fluorophenyl)-pyrid-5-yl]-3,5-dihydroxy-hept-6-enoate]
30	CCC(C)(C)C(=O)OCc1c(C(C)C)nc(C(C)C)c(/C=C/[C@@H](O)C[C@@H](O)CC(=O)OC)c1-c1ccc(F)cc1 (relative stereo) [Example 70, Methyl erythro-(E)-7-[2,6-diisopropyl-5-(2,2-dimethyl-butyryloxymethyl)-4-(4-fluorophenyl)-pyrid-3-yl]-3,5-dihydroxy-hept-6-enoate]
10	COC(=O)C[C@H](O)C[C@H](O)/C=C/c1c(C(C)C)nc(C(C)C)c(COc2ccccc2)c1-c1ccc(F)cc1 (relative stereo) [Example 89, Methyl erythro-(E)-7-[2,6-diisopropyl-4-(4-fluorophenyl)-5-phenoxymethyl-pyrid-3-yl]-3,5-dihydroxy-hept-6-enoate]
20	COC(=O)C[C@H](O)C[C@H](O)/C=C/c1c(C(C)C)nc(C(C)C)c(-c2ccccc2)c1-c1ccc(F)cc1 (relative stereo) [Example 99]
3	COC(=O)C[C@H](O)C[C@H](O)/C=C/c1c(C(C)C)nc(C(C)C)c(CSCc2ccccc2)c1-c1ccc(F)cc1 (relative stereo) [Example 107, Methyl erythro-(E)-7-[2,6-diisopropyl-4-[4-fluorophenyl)-5-benzylthio-methyl-pyrid-3-yl]-3,5-dihydroxy-hept-6-enoate]
